Test results as given in patent US11602551B2, “Use of inosine for the treatment of t-reg deficiency” (BioGaia AB, priority 2016, dated 2023).

Tested on: Splenic lymphocytes
Assay: Lymphocyte proliferation test (XTT)
Format: cell-based, mice
Procedure: Splenic lymphocytes were split into 96-well plates at an initial density of 2×10^4 cells per well and were incubated with different doses of inosine under control, 40 μg/ml of LPS or 10 μg/ml of PHA condition, respectively. After 96 h, cell viability was measured by TACS XTT cell proliferation assay kit (Trevigen, Inc. Gaithersburg, Md.).

For `O=c1[nH]cnc2c1ncn2[C@@H]1O[C@H](CO)[C@@H](O)[C@H]1O` [inosine], the “proliferation of PHA-stimulated T-lymphocytes” value (96 h treatment, 10 μg/ml of PHA) was “does not inhibit”, the “proliferation of LPS-stimulated B-lymphocytes” value (96 h treatment, 40 μg/ml of LPS) was “does not inhibit” and the “proliferation of lymphocytes in vitro” value (different doses of inosine, 96 h) was “did not inhibit”.
